In patent US20190389841A1, “COMPOUNDS FOR TREATMENT OF TRIPLE NEGATIVE BREAST CANCER AND OVARIAN CANCER” (UNIVERSITY OF TENNESSEE RESEARCH FOUNDATION, priority 2018, published 2019):
pIC50: −log10 of the molar value. Like-named read-outs stand apart in the source and are kept apart here.

Columns and labels:
PC-3/TxR tumors = experiment: Paclitaxel resistant prostate cancer xenograft; settings: in vivo
[1] = test system: paclitaxel resistant PC-3 cells; experiment: In vitro cytotoxicity after 96 hours; assay type: cell-based
MDA-MB-468 [2] = experiment: Colony formation assay; assay type: cell-based, human; settings: 8 nM, MDA-MB-468 cells
Experimental: (§1) Colony formation assay. […] The medium of each group was renewed once a week. […] The morphology of colonies was captured under a microscope and colony area was quantified using ImageJ software (NIH, Bethesda, Md.). The drug treatment was performed in triplicate.

MDA-MB-231 cells [3] = experiment: Scratch assay (cell migration); assay type: cell-based, human; settings: 16 nM
Experimental: Cell migration was also analyzed by the scratch assay. […] The following day, a scratch was made in the cell monolayer by using a sterile 200-μl pipette tip. […] After 12 h, 24 h and 48 h, the wound width was determined and imaged with Evos Fl Imaging System (Life Technologies, Carlsbad, Calif.). The extent of wound closure was shown as the percentage of decrease of the original scratch width at each measured time point. Experiments were done in triplicate.

Brain penetration = assay type: in vivo
MDA-MB-231 = experiment: Colony formation assay; assay type: cell-based, human; settings: 8 nM
Experimental: as §1

[4] = test system: MDA-MB-231 xenograft tumors; experiment: H&E and IHC analysis of orthotopic TNBC tumors; assay type: in vivo, NSG mice; settings: 12.5 mg/kg
[5] = test system: TNBC spontaneous lung metastasis; experiment: Spontaneous lung metastasis in orthotopic TNBC model; assay type: in vivo, mice; settings: 12.5 mg/kg
MDA-MB-468 [6] = experiment: cells; settings: Homo sapiens
MDA-MB-231 xenografts = experiment: Orthotopic TNBC xenograft model, 18 days
MDA-MB-231 cells [7] = experiment: Experimental lung metastasis model (tail vein); settings: 10 mg/kg, 22 days of treatment
[8] = after 48 hours, MDA-MB-231 as printed

CC(=O)O[C@@]12CO[C@@H]1C[C@H](O)[C@@]1(C)C(=O)[C@H](O)C3=C(C)[C@@H](OC(=O)[C@H](O)[C@@H](NC(=O)OC(C)(C)C)c4ccccc4)C[C@@](O)([C@@H](OC(=O)c4ccccc4)[C@H]21)C3(C)C [docetaxel]
efficacy in PC-3/TxR tumors (PC-3/TxR tumors): lack of efficacy | potency in paclitaxel resistant PC-3 cells [1]: lose potency

COc1cc2c(c(OC)c1OC)-c1ccc(OC)c(=O)cc1[C@@H](NC(C)=O)CC2 [colchicine]
reductions in colony formation (MDA-MB-468 [2]): 51% | average migration rate, scratch assay (MDA-MB-231 cells [3]; after 24 hours): 67.3% | average migration rate, scratch assay (MDA-MB-231 cells [3]; [8]): 15.8%

COc1cc(C(=O)c2csc(Nc3ccc4[nH]ccc4c3)n2)cc(OC)c1OC [Compound 55, (2-(1H-indol-5-ylamino)thiazol-4-yl)(3,4,5-trimethoxyphenyl)methanone]
Kp at 4 h (Brain penetration; brain, 4 h after oral treatment, read-out: Brain/plasma concentration ratio): ~0.2 | Brain/plasma concentration ratios over time (Brain penetration; in vivo): remained relatively constant over time | brain penetration (Brain penetration; in vivo): high brain penetration

CC(=O)O[C@H]1C(=O)[C@@]2(C)[C@H]([C@H](OC(=O)c3ccccc3)[C@]3(O)C[C@H](OC(=O)[C@H](O)[C@@H](NC(=O)c4ccccc4)c4ccccc4)C(C)=C1C3(C)C)[C@]1(OC(C)=O)CO[C@@H]1C[C@@H]2O [paclitaxel]
relative percentage of colonies (MDA-MB-231): 27.5% | reductions in colony formation (MDA-MB-468 [2]): 7.4% | average migration rate, scratch assay (MDA-MB-231 cells [3]; after 24 hours): 13.3% | average migration rate, scratch assay (MDA-MB-231 cells [3]; [8]): 14.5% | necrotic area of tumors [4]: 41.5% | spontaneous lung metastasis, mice [5]: all eight mice had no metastasis | potency in paclitaxel resistant PC-3 cells [1]: lose potency | pIC50 (MDA-MB-468 [6]; MDA-MB-468, read-out: IC50 (FIG. 37)): 8.34 | pIC50 (MDA-MB-468 [6]; MDA-MB-468, read-out: IC50, cell viability): 8.34 | average final tumor weight (MDA-MB-231 xenografts; 12.5 mg/kg): 0.38 g | body weight during treatment (MDA-MB-231 xenografts; 18 days, paclitaxel 12.5 mg/kg): decreased mice body weight significantly | body weights and physical activities of mice (MDA-MB-231 cells [7]): slightly decreased | lung metastasis of TNBC (MDA-MB-231 cells [7]): significantly inhibited lung metastasis
